Here are results for two molecules from patent US12318434B2, “Alkaline phosphate-based oncology treatments” (Theriva Biologics, Inc., priority 2019, dated 2025).

Data set [1] has as its system BALB/c mice inoculated with CT26 murine colorectal cancer cells. As to conditions: for Duration of Diarrhea (score = 4): Days < 4: animal-days with stool score < 4; for Duration of Diarrhea (score = 4): Days = 4: animal-days with stool score = 4 (diarrhea); for Duration of Diarrhea (score = 4): % Days = 4: percentage of total animal-days with diarrhea (score=4). The text has this: (§1) The study conducted included evaluation of the effects of administration of an IAP (“SYN-020” is synonymous with IAP and SYN BIAPII) along with a chemotherapeutic treatment with 5-fluorouracil (5-FU) in a murine model. […] Stool consistency was scored as the following: Score 0=Normal (no diarrhea); Score 2=Loose, formed stools; and Score 4=Diarrhea.
(§2) The second set of experiments included four groups of BALB/c mice inoculated with CT26 murine colorectal cancer cells into the right flank: (1) a vehicle control group of 30 male mice (“vehicle”); (2) a group of 30 male mice that received a daily treatment dose of 100 U/dose, 0.5 mg/kg of SYN BIAP II alone (“SYN BIAP II”); (3) a group of 30 male mice (“vehicle+5-FU”) that received an IP QD dose of 30 mg/kg of 5-FU for 5 consecutive days (days 0-4) and vehicle treatment; and (4) a group of 30 male mice (“SYN BIAPII+5-FU”) that received an IP QD dose of 30 mg/kg of 5-FU for 5 consecutive days (days 0-4) and an IAP (SYN-020) in a dose of 100 U/dose, 0.5 mg/kg, administered PO BID throughout the study (days −3 to +26).
Arrows indicate 5-FU administration days. […] The statistical significance of group differences in daily stool scores was assessed on each day by Mann-Whitney rank-sum analysis.
Table 1 below compares the duration of 5-FU-induced diarrhea by calculating the percentage of total animal-days with diarrhea (score=4). Groups were compared by chi-square test.

The test system is the same in data set [2]. Briefly: Second set of experiments: mean daily body weight change after 5-FU with or without IAP. As to conditions: 5-FU 30 mg/kg IP QD days 0-4. The data set is classed as in vivo. How it is done:
as §2
Cumulative differences in body weight change between treatment groups through 50% common group survival (Day (−3)-16) were assessed by calculating the area under the curve (AUC) for each animal using the trapezoidal transformation.

The test system is the same in data set [3]. Briefly: First set of experiments: stool consistency and weight change after 5-FU with or without IAP. The data set is classed as in vivo.
From the text: as §1
The first set of experiments included three groups of BALB/c mice inoculated with CT26 murine colorectal cancer cells into the right flank: (1) a no-treatment control group of 18 male mice (“untreated”); (2) a group of 18 male mice (“vehicle+5-FU”) that received an intraperitoneal (IP) QD (once daily) dose of 30 mg/kg of 5-FU for 5 consecutive days (days 0-4) and a vehicle was administered PO (orally) BID (twice a day) throughout the study (days −3 to +26); and (3) a group of 18 male mice (“SYN BIAPII+5-FU”) that received an IP QD dose of 30 mg/kg of 5-FU for 5 consecutive days (days 0-4) and an IAP (SYN-020) in a dose of 0.5 mg/kg, administered PO BID throughout the study (days −3 to +26).

Where [4] appears, read: 5-FU 30 mg/kg IP QD days 0-4, vehicle or SYN-020 0.5 mg/kg PO BID days -3 to +26.

Entries after “also recorded” stand apart in the source; their conditions may differ.

Consider `O=c1[nH]cc(F)c(=O)[nH]1` [vehicle + 5-FU, 5-fluorouracil], for which, in data set [1] (5-FU 30 mg/kg IP QD days 0-4), the “day by which incidence of loose stools generally resolved” value is at most 12 days and the “day on which incidence of loose stools or diarrhea was first observed” value was found to be 5 days. In data set [1], the “Duration of Diarrhea (score = 4): Days < 4” value is 245, the “Duration of Diarrhea (score = 4): Days = 4” value was 43 and the “Duration of Diarrhea (score = 4): % Days = 4” value is listed as 14.93%. For the same molecule, in data set [1] (mouse, in vivo), the “animal-days with diarrhea compared to untreated animals” value is given as “statistically significant cumulative increase”. Moreover, in data set [2], the “day by which animals regained lost weight” value was about 20 days and the “day on which chemotherapy-induced weight loss peaked” value is 7 days. Also, the “chemotherapy-induced weight loss at peak (percent change compared to body weight at Day 0)” value in data set [2] (Day 7) is about −20%. The “effect of 5-FU administration on stools and weight” value in data set [3] (5-FU 30 mg/kg IP QD days 0-4, all of the treated animals) was “caused loose stools/diarrhea, as well as associated weight loss; also recorded: caused loose stools/diarrhea, and associated weight loss”. Further, in data set [3] (setting [4]), the “day by which loose stools/diarrhea and associated weight loss recovered” value was at most 9 days; the “day on which loose stools/diarrhea and associated weight loss peaked” value came to 6 days.

B1: SYN BIAPII: intestinal alkaline phosphatase; BIAP II with stop codon and no leader sequence (SYN-020) (SEQ ID NO: 41) (protein)
chain: LIPAEEENPAFWNRQAAQALDVAKKLQPIQTAAKNVILFLGDGMGVPTVTATRILKGQMNGKLGPETPLAMDQFPYVALSKTYNVDRQVPDSAGTATAYLCGVKGNYRTIGVSAAARYNQCNTTRGNEVTSVINRAKKAGKAVGVVTTTRVQHASPAGAYAHTVNRNWYSDADLPADAQKNGCQDIAAQLVYNMDIDVILGGGRMYMFPEGTPDPEYPDDASVNGVRKDKQNLVQEWQAKHQGAQYVWNRTALLQAADDSSVTHLMGLFEPADMKYNVQQDHTKDPTLAEMTEAALQVLSRNPRGFYLFVEGGRIDHGHHDGKAYMALTEAIMFDNAIAKANELTSELDTLILVTADHSHVFSFGGYTLRGTSIFGLAPGKALDSKSYTSILYGNGPGYALGGGSRPDVNGSTSEEPSYRQQAAVPLASETHGGEDVAVFARGPQAHLVHGVQEETFVAHIMAFAGCVEPYTDCNLPAPATATSIPD
modifications: Synthetic polymer.
As for B1, in data set [1], the “Duration of Diarrhea (score = 4): Days < 4” value is listed as 299, the “Duration of Diarrhea (score = 4): Days = 4” value worked out at 1 and the “Duration of Diarrhea (score = 4): % Days = 4” value amounted to 0.33%. For the same molecule, the “stool consistency throughout the course of the analysis” value in data set [1] (mouse, in vivo, 0.5 mg/kg) was “normal stool consistency”. Besides, the “recovery from the loose stools/diarrhea symptoms and associated weight loss” value in data set [3] (SYN-020 0.5 mg/kg PO BID plus 5-FU, compared with vehicle+5-FU, p<0.03) is given as “significantly faster recovery”.
